The results in this text go back to PubChem BioAssay (NCI).

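1) Cells in 96-well plates. 2) Compound, 48 h, 5 concentrations. 3) Linear interpolation between surrounding doses. 4) Unreached endpoint = highest concentration. Abbreviation: GI50, concentration required for 50% inhibition of growth. TGI is the concentration that stops growth completely.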

Test systems include K-562 leukemia; SK-MEL-28 melanoma; U251 CNS; HCT-15 colon; UO-31 renal; SN12C renal; SNB-19 CNS; NCI-H23 lung; MCF7 breast; HS 578T breast.
Assay in all cases: NCI anticancer screen, dose series, 48 h

As for `N#CC(C#N)=Cc1ccc(C(O)P(=O)(O)O)cc1` (stereo unspecified), the TGI with K-562 leukemia, in the experiment with SK-MEL-28 melanoma, in the experiment with U251 CNS, with HCT-15 colon, with UO-31 renal and in the experiment with SN12C renal was over 100 µM throughout. Besides, the TGI with SNB-19 CNS and in the experiment on NCI-H23 lung was over 100 µM each time.
As for `O=C1Nc2ccc(O)cc2/C1=C\c1ccncc1`, the GI50 with MCF7 breast is 4.18 µM; in the experiment on K-562 leukemia, 17.7 µM; in the experiment with HS 578T breast, 29.2 µM; with U251 CNS, 10.3 µM; in the experiment on HCT-15 colon, 11 µM; in the experiment on UO-31 renal, 14.1 µM. The GI50 with SN12C renal was 16.2 µM; in the experiment on SNB-19 CNS, 21.2 µM; in the experiment on NCI-H23 lung, 25.1 µM. Also, the TGI in the experiment on MCF7 breast amounted to 38.2 µM; with K-562 leukemia it was 56.2 µM; with HS 578T breast, 97.3 µM; with U251 CNS, 23.1 µM; in the experiment on HCT-15 colon it was 39 µM; in the experiment on UO-31 renal, 31.8 µM. The figures for the TGI with SN12C renal, in the experiment with SNB-19 CNS and with NCI-H23 lung were 44.3 µM, 59 µM and 62.4 µM, respectively.
In the case of `COC(=O)C(=O)C(C#N)c1cccc(Cl)c1` (stereo unspecified), the TGI in the experiment on K-562 leukemia, with SK-MEL-28 melanoma, in the experiment with U251 CNS, in the experiment on HCT-15 colon, with UO-31 renal and in the experiment on SN12C renal was over 100 µM throughout. Moreover, the TGI with SNB-19 CNS and in the experiment on NCI-H23 lung was over 100 µM in each case.
Turning to `O=C(CN1CCN(CCN2C(=O)c3cccc4cccc(c34)C2=O)CC1)Nc1ccc2ncsc2c1`, the GI50 in the experiment on MCF7 breast is 4.65 µM; with SK-MEL-28 melanoma, 11 µM; in the experiment with HS 578T breast it was 43.3 µM; in the experiment with U251 CNS, 4.39 µM; in the experiment on HCT-15 colon it was 5.05 µM; in the experiment on UO-31 renal, 6.21 µM. For the same molecule, the GI50 in the experiment on SN12C renal was 5.5 µM; in the experiment on SNB-19 CNS, 4.5 µM; in the experiment on NCI-H23 lung, 7.08 µM. For the same molecule, the TGI is 17.5 µM in the experiment with MCF7 breast; 23.8 µM in the experiment with SK-MEL-28 melanoma; over 100 µM in the experiment on HS 578T breast; 17.2 µM with U251 CNS; 20.1 µM with HCT-15 colon; 30.8 µM with UO-31 renal. The TGI turned out to be 19.9 µM with SN12C renal, 21.7 µM with SNB-19 CNS and 27 µM in the experiment with NCI-H23 lung.
`O=C1c2cccc([N+](=O)[O-])c2C(=O)c2nccnc21`: the TGI stood at 4.17 µM in the experiment with K-562 leukemia; 3.01 µM with SK-MEL-28 melanoma; 4.34 µM in the experiment on U251 CNS; 2.92 µM with HCT-15 colon; 2.6 µM with UO-31 renal; 3.64 µM in the experiment on SN12C renal. The TGI with SNB-19 CNS was 4.04 µM; in the experiment with NCI-H23 lung it was 2.98 µM.
On to `CCOC(=O)NC(=O)c1cn(CCCCCCCCCCC(=O)NCCCN2CCN(CCCNC(=O)CCCCCCCCCCn3cc(C(=O)NC(=O)OCC)c(=O)[nH]c3=O)CC2)c(=O)[nH]c1=O`, for which the TGI in the experiment on K-562 leukemia, in the experiment on SK-MEL-28 melanoma, in the experiment on U251 CNS, in the experiment on HCT-15 colon, in the experiment on UO-31 renal and with SN12C renal was over 100 µM each time. The TGI in the experiment on SNB-19 CNS and in the experiment on NCI-H23 lung was over 100 µM in each case.
For `C[C@]12CCCN1CC1=NNC(=O)c3cc(F)cc4[nH]c2c1c34`, the GI50 in the experiment with MCF7 breast was 11.6 µM; with SK-MEL-28 melanoma, 24.9 µM; in the experiment with HS 578T breast, 11.8 µM; in the experiment on U251 CNS, 14.1 µM; in the experiment with HCT-15 colon it was 21.2 µM; in the experiment on UO-31 renal, 16 µM. Besides, the GI50 in the experiment with SN12C renal is 14.3 µM; in the experiment on SNB-19 CNS, 25.1 µM; in the experiment with NCI-H23 lung, 16.1 µM. Further, the TGI in the experiment on MCF7 breast was over 100 µM; in the experiment on SK-MEL-28 melanoma, 87.2 µM; with HS 578T breast, 62.5 µM; with U251 CNS it was over 100 µM; with HCT-15 colon it was over 100 µM; in the experiment with UO-31 renal it was over 100 µM. The TGI with SN12C renal was 79.1 µM; with SNB-19 CNS it was over 100 µM; with NCI-H23 lung, 54.6 µM.
With `Cn1nc(-c2ccccc2)c2c(/C=C/c3ccc(Cl)cc3)onc2c1=O`, the TGI in the experiment on K-562 leukemia was over 100 µM; with SK-MEL-28 melanoma, over 100 µM; in the experiment with U251 CNS, over 100 µM; in the experiment with HCT-15 colon, over 100 µM; in the experiment with UO-31 renal, 71.4 µM; in the experiment on SN12C renal, over 100 µM. For the same molecule, the TGI in the experiment on SNB-19 CNS and with NCI-H23 lung was over 100 µM in each case.
With `COc1ccc(NC(=S)C#N)cc1`, the TGI in the experiment on MCF7 breast, in the experiment on K-562 leukemia, in the experiment on SK-MEL-28 melanoma, with U251 CNS, in the experiment on HCT-15 colon and in the experiment with SN12C renal was over 100 µM in each case. For the same molecule, the TGI in the experiment with SNB-19 CNS and in the experiment on NCI-H23 lung was over 100 µM in each case.
Regarding `CN1C(c2ccccc2)CC(C)(O)CC1c1ccccc1` (stereo unspecified), the TGI in the experiment with K-562 leukemia, with SK-MEL-28 melanoma, in the experiment on U251 CNS, with HCT-15 colon, in the experiment with UO-31 renal and with SN12C renal was over 100 µM throughout. Moreover, the TGI in the experiment on SNB-19 CNS and with NCI-H23 lung was over 100 µM each time.
Consider `O=C1C(Cl)=C(Cl)C(=O)N1c1ccccc1Cl`, for which the TGI in the experiment with K-562 leukemia was over 81 µM; in the experiment on SK-MEL-28 melanoma, over 100 µM; in the experiment with U251 CNS, over 100 µM; with HCT-15 colon, over 88.4 µM; in the experiment with UO-31 renal, over 100 µM; in the experiment with SN12C renal it was over 100 µM. In addition, the TGI with SNB-19 CNS and in the experiment on NCI-H23 lung was over 100 µM each time.
In the case of `Cc1cncc(-c2nc(NCCc3c[nH]c4ccccc34)c3ncn(C(C)C)c3n2)c1`, the GI50 in the experiment with MCF7 breast was 4.05 µM; with SK-MEL-28 melanoma, 2.52 µM; with HS 578T breast, 2.64 µM; with U251 CNS, 4.96 µM; with HCT-15 colon, 1.67 µM; in the experiment with UO-31 renal, 3.06 µM. The GI50 was 3.67 µM with SN12C renal, 11.5 µM in the experiment on SNB-19 CNS and 5.34 µM in the experiment with NCI-H23 lung. The TGI came out at 15.6 µM in the experiment with MCF7 breast; 6.66 µM in the experiment on SK-MEL-28 melanoma; 9.96 µM in the experiment with HS 578T breast; 39.6 µM in the experiment with U251 CNS; 3.82 µM in the experiment on HCT-15 colon; 12.9 µM in the experiment on UO-31 renal. Also, the TGI in the experiment with SN12C renal was found to be 32.4 µM; in the experiment with SNB-19 CNS, 46.6 µM; in the experiment with NCI-H23 lung, 19.4 µM.
